Patent US9243221B2, “Compositions and methods of functionally enhanced in vitro cell culture system” (HUREL CORPORATION, priority 2008, dated 2016)
Like-named read-outs stand apart in the source and are kept apart here.

Legend:
[1] = tested on: Cryopreserved human hepatocytes; test: Long term accumulation of 4-OH midazolam in culture media of oxygenated hepatocyte co-cultures; format: in vitro ADME; conditions: in the presence and absence of rifampicin; FIG. 5B
[2] = tested on: Cryopreserved human hepatocytes
Method: Cryopreserved human hepatocytes are cultured with 3T3-J2 fibroblasts under serum free conditions. Following overnight incubation in high oxygen tension (95% O2, 5% CO2) the cells are exposed to one of the following drugs: antipyrine, buspirone, metoprolol, sildenafil, and timolol.

SMILES	clearance of drugs ([2]; human)	further results
Cc1ncc2n1-c1ccc(Cl)cc1C(c1ccccc1F)=NC2O (stereo not shown) [4-OH midazolam]	–	accumulation of 4-OH midazolam in the culture media [1]: can be detected over 30 hours of culture
Cc1cc(=O)n(-c2ccccc2)n1C [antipyrine]	–	clearance of drugs ([2]; cryopreserved human hepatocytes with 3T3-J2 fibroblasts, serum free, overnight 95% O2, 5% CO2, FIG. 5A): slow clearing
CC(C)(C)NC[C@H](O)COc1nsnc1N1CCOCC1 [timolol]	slow clearing	–
CCCc1nn(C)c2c(=O)[nH]c(-c3cc(S(=O)(=O)N4CCN(C)CC4)ccc3OCC)nc12 [sildenofil, sildenafil]	slow clearing	–
